Results published in patent US20130131161A1, “METHODS AND COMPOSITIONS FOR CARDIOVASCULAR DISEASES AND CONDITIONS” (priority 2009, published 2013).
Values joined by “and” are separate entries in the source; they are usually repeats but may differ in a detail not shown here. Equal entries are not always repeated.

Tested on: eNOS
Test: eNOS protein abundance in HUVECs by immunochemical methods (Example 2)
Assay type: cell-based, human
Settings: for eNOS protein abundance (mean ± sd): pg/ug total protein; for Fold difference eNOS protein abundance (mean ± sd): (LA-419 5 μM)/(control)
Source text: eNOS Activity and Protein Abundance Measurements
Using immunochemical methods, there was no change in any condition in relation to eNOS protein abundance, Tables ss-L1.

## CC(=O)SC1COC2C(O[N+](=O)[O-])COC12 (stereo not drawn) [LA-419, S-(6-Nitro-oxi-hexahydro-furo[3,2-b]furan-3-1-il)thioacetate]
5 μM LA-419, Intron 4 variant b/a, a/a, c/c (n=14)
  eNOS protein abundance % Change (mean ± sd): 0.32 (9.26) %
5 μM LA-419, Intron 4 variant b/b (n=31)
  eNOS protein abundance % Change (mean ± sd): −1.78 (6.88) %
5 μM LA-419, G894T + T786C G/G + T/C, n=8
  eNOS protein abundance (mean ± sd): 6.27 (1.56) pg/ug
5 μM LA-419, G894T + T786C G/G + T/T, n=18
  eNOS protein abundance (mean ± sd): 6.17 (1.24) pg/ug
5 μM LA-419, G894T + T786C G/T + C/C, n=1
  eNOS protein abundance (mean ± sd): 7.25 (0) pg/ug
5 μM LA-419, G894T + T786C G/T + T/C, n=13
  eNOS protein abundance (mean ± sd): 5.59 (1.08) pg/ug
5 μM LA-419, G894T + T786C G/T + T/T, n=4
  eNOS protein abundance (mean ± sd): 5.82 (1.49) pg/ug
5 μM LA-419, G894T + T786C T/T + C/C, n=3
  eNOS protein abundance (mean ± sd): 6.47 (1.34) pg/ug
5 μM LA-419, G894T + T786C T/T + T/C, n=2
  eNOS protein abundance (mean ± sd): 4.52 (0.30) pg/ug
5 μM LA-419, G894T G/G, n=26
  eNOS protein abundance (mean ± sd): 6.20 (1.31) pg/ug
5 μM LA-419, G894T G/T & T/T, n=23
  eNOS protein abundance (mean ± sd): 5.72 (1.20) pg/ug
5 μM LA-419, G894T G/T, n=18
  eNOS protein abundance (mean ± sd): 5.73 (1.17) pg/ug
5 μM LA-419, G894T T/T, n=5
  eNOS protein abundance (mean ± sd): 5.69 (1.44) pg/ug
5 μM LA-419, Genotype Combination, n=31 (title: Combination = G/G + T/T, G/G + T/C, G/G/+C/C, G/T + T/T, G/T + T/C, G/T + C/C, T/T + T/C)
  eNOS protein abundance (mean ± sd): 5.86 (1.30) pg/ug
5 μM LA-419, Genotype Reference, n=18 (title: Reference group = T/T + C/C)
  eNOS protein abundance (mean ± sd): 6.17 (1.24) pg/ug
5 μM LA-419, Intron 4 a/a, n=3
  eNOS protein abundance (mean ± sd): 7.17 (1.19) pg/ug
5 μM LA-419, Intron 4 b/a, a/a, c/c, n=14
  eNOS protein abundance (mean ± sd): 6.31 (1.50) pg/ug
5 μM LA-419, Intron 4 b/a, n=10
  eNOS protein abundance (mean ± sd): 5.95 (1.56) pg/ug
5 μM LA-419, Intron 4 b/b, n=31
  eNOS protein abundance (mean ± sd): 5.75 (1.13) pg/ug
5 μM LA-419, Intron 4 c/c, n=1
  eNOS protein abundance (mean ± sd): 7.39 (0) pg/ug
5 μM LA-419, T-786C CC, n=4
  eNOS protein abundance (mean ± sd): 6.67 (1.16) pg/ug
5 μM LA-419, T-786C T/C & C/C, n=27
  eNOS protein abundance (mean ± sd): 5.87 (1.30) pg/ug
5 μM LA-419, T-786C T/C, n=23
  eNOS protein abundance (mean ± sd): 5.73 (1.29) pg/ug
5 μM LA-419, T-786C T/T, n=22
  eNOS protein abundance (mean ± sd): 6.11 (1.26) pg/ug
5 μM LA-419 vs control, n=2
  eNOS protein abundance % Change (mean ± sd): −4.89 (0.49) %
5 μM LA-419 vs control, G894T G/G, n=26
  eNOS protein abundance % Change (mean ± sd): −1.07 (8.07) %
5 μM LA-419 vs control, G894T G/T, n=18
  eNOS protein abundance % Change (mean ± sd): −0.79 (7.54) %
5 μM LA-419 vs control, G894T T/T, n=5
  eNOS protein abundance % Change (mean ± sd): −1.54 (6.56) %
5 μM LA-419 vs control, Intron 4 a/a, n=3
  eNOS protein abundance % Change (mean ± sd): 1.11 (10.89) %
5 μM LA-419 vs control, Intron 4 b/a, n=10
  eNOS protein abundance % Change (mean ± sd): 0.68 (9.65) %
5 μM LA-419 vs control, Intron 4 b/b, n=31
  eNOS protein abundance % Change (mean ± sd): −1.78 (6.88) %
5 μM LA-419 vs control, Intron 4 c/c, n=1
  eNOS protein abundance % Change (mean ± sd): −5.66 (0) %
5 μM LA-419 vs control, Race Asian, n=1
  eNOS protein abundance % Change (mean ± sd): −17.56 (0) %
5 μM LA-419 vs control, Race Black, n=12
  eNOS protein abundance % Change (mean ± sd): −5.95 (6.82) %
5 μM LA-419 vs control, Race Caucasian, n=26
  eNOS protein abundance % Change (mean ± sd): 2.50 (6.89) %
5 μM LA-419 vs control, Race Hispanic, n=6
  eNOS protein abundance % Change (mean ± sd): −1.16 (4.99) %
5 μM LA-419 vs control, Race Not Reported, n=2
  eNOS protein abundance % Change (mean ± sd): −4.62 (0.81) %
5 μM LA-419 vs control, T-786C C/C, n=4
  eNOS protein abundance % Change (mean ± sd): −6.82 (6.09) %
5 μM LA-419 vs control, T-786C T/C, n=23
  eNOS protein abundance % Change (mean ± sd): −0.37 (9.0) %
5 μM LA-419 vs control, T-786C T/T, n=22
  eNOS protein abundance % Change (mean ± sd): −0.64 (5.88) %
Combination of all G894T + T-786C genotypes but G/G + T/T, n=31
  Fold difference eNOS protein abundance (mean ± sd): 0.99 (0.09)
Combination of all G894T + T-786C genotypes but T/T + C/C, n=46
  Fold difference eNOS protein abundance (mean ± sd): 0.99 (0.08)
G894T + T-786C G/G + T/C, n=8
  Fold difference eNOS protein abundance (mean ± sd): 0.98 (0.12)
G894T + T-786C G/G + T/T, n=18
  Fold difference eNOS protein abundance (mean ± sd): 0.99 (0.06)
G894T + T-786C G/T + C/C, n=1
  Fold difference eNOS protein abundance (mean ± sd): 0.88 (0)
G894T + T-786C G/T + T/C, n=13
  Fold difference eNOS protein abundance (mean ± sd): 1.00 (0.07)
G894T + T-786C G/T + T/T, n=4
  Fold difference eNOS protein abundance (mean ± sd): 1.00 (0.08)
G894T + T-786C T/T + C/C, n=3
  Fold difference eNOS protein abundance (mean ± sd): 0.95 (0.06)
G894T + T-786C T/T + T/C, n=2
  Fold difference eNOS protein abundance (mean ± sd): 1.04 (0.01)
G894T G/G & G/T, n=44
  Fold difference eNOS protein abundance (mean ± sd): 0.99 (0.08)
G894T G/G, n=26
  Fold difference eNOS protein abundance (mean ± sd): 1.00 (0.08) and 0.99 (0.08)
G894T G/T & T/T, n=23
  Fold difference eNOS protein abundance (mean ± sd): 0.99 (0.07)
G894T G/T, n=18
  Fold difference eNOS protein abundance (mean ± sd): 0.99 (0.08)
G894T T/T, n=5
  Fold difference eNOS protein abundance (mean ± sd): 0.98 (0.07)
Intron 4 a/a, n=3
  Fold difference eNOS protein abundance (mean ± sd): 1.01 (0.11)
